# PMC9646673, “A Novel, Orally Bioavailable, Small-Molecule Inhibitor of PCSK9 With Significant Cholesterol-Lowering Properties In Vivo” (Journal of Lipid Research, 2022)
# How the values were obtained:
# [1] = system: hepatic LDLR protein; assay: Second efficacy study: hepatic LDLR protein (Western blotting); type: in vivo, mouse; settings: day 35; NYX-PCSK9i 50 mg/kg BID PO, atorvastatin […]
# [2] = system: APOE∗3-Leiden.CETP mice; assay: Second efficacy study: body weight, food intake, plasma ALT and AST; type: in vivo, mouse; design: Body weight (mean ± SD) / Food intake (mean ± SD): unit not given here; settings: NYX-PCSK9i 50 mg/kg BID PO, atorvastatin […]
# Text: Animal experiments were approved by the governmental central committee on animal experiments (AVD5010020172064) and TNO’s animal welfare body (TNO-471 and TNO-482). Female APOE∗3-Leiden.CETP transgenic mice (11–16 weeks of age) were bred at the animal facility of TNO-InnoSer (Leiden, The Netherlands). Female animals were used in this study as they are more responsive to dietary cholesterol and fat than males and therefore typically develop atherosclerosis more rapidly than male APOE∗3-Leiden and APOE∗3-Leiden.CETP mice on cholesterol-containing diets ([33], [34]). Although measurements of atherosclerosis were not included as part of the present study, females were used with the prospect in mind that atherosclerosis studies will follow. The mice were housed under standard conditions that included 12 h light-dark cycles and access to a WTD and sterilized tap water ad libitum. Body weight, food intake, and clinical signs of behavior were monitored throughout the studies. […] Time t = 0 (weeks) was designated as the time at which mice were matched into groups after the 3-week run-in period in each efficacy study.
# In both studies, blood samples were collected at weekly intervals via tail vein sampling after fasting the mice for 4 h. Blood samples were centrifugated (4500 g at 4°C), and the plasma was collected for the following analyses. Total plasma cholesterol levels were determined using a Cholesterol CHOD-PAP kit according to the manufacturer’s instructions. Plasma HDL-C levels were determined by first precipitating apoB-containing lipids using PEG 6000/glycine and then utilizing the Cholesterol CHOD-PAP kit ([35]). Non-HDL-C levels were determined by subtracting HDL-C levels from total cholesterol levels ([32]). Group-pooled lipoprotein profiles were determined by FPLC analysis using an AKTApurifier 10 FPLC system (GE Healthcare, Chicago, IL). Plasma PCSK9 levels were determined using a Mouse PCSK9 Quantikine ELISA kit as per the manufacturer’s protocol. ALT and AST levels of group-pooled samples were measured using the Roche Reflotron Plus System (Mannheim, Germany).
# [3] = system: APOE∗3-Leiden.CETP mice; settings: cited from earlier work
Compound,increase in hepatic LDLR protein expression [1],Body weight (mean ± SD) ([2]; day 0 (baseline)),Food intake (mean ± SD) ([2]; day 0 (baseline)),Food intake (mean ± SD) ([2]; day 7),Food intake (mean ± SD) ([2]; day 14),Food intake (mean ± SD) ([2]; day 21),Body weight (mean ± SD) ([2]; day 28),Food intake (mean ± SD) ([2]; day 28),Food intake (mean ± SD) ([2]; day 35),"hepatic cholesteryl ester content, fecal bile acid content and fecal neutral sterol levels [3]"
"CC(C)c1c(C(=O)Nc2ccccc2)c(-c2ccccc2)c(-c2ccc(F)cc2)n1CC[C@@H](O)C[C@@H](O)CC(=O)O [atorvastatin, reference compound]",no significant effect,21.7 ± 0.8,3.4 ± 0.3,2.5 ± 0.1,2.5 ± 0.2,2.3 ± 0.0,21.8 ± 1.2,2.3 ± 0.1,2.5 ± 0.1,–
alirocumab: a monoclonal antibody against PCSK9,–,–,–,–,–,–,–,–,–,affected none of these parameters
